Reference: PMC7579925, “Complementary NAD^+ replacement strategies fail to functionally protect dystrophin-deficient muscle” (Skeletal Muscle, 2020)

Target: T1, CD38 (Mus musculus, UniProt P56528)
T1 construct: recombinant soluble (extracellular) domain, expressed in and purified from Pichia pastoris
T1 sequence (P56528 45-304 limits assumed): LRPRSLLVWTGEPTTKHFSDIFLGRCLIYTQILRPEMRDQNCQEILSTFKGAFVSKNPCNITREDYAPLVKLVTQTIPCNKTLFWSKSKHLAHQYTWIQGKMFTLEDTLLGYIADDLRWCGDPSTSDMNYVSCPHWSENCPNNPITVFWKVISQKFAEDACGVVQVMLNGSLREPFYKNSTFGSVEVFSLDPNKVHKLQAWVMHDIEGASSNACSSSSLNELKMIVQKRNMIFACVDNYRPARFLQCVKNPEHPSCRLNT
Experiment: colorimetric base-exchange (transglycosidation) assay, dose-response
Assay type: biochemical

IC50: ~ 12 ng/mL
Substance: GSK978A
